Measured values reported in patent US7671077B2, “Neuroprotective small organic molecules, compositions and uses related thereto” (priority 2004, dated 2010).

System: midbrain dopaminergic neurons
Experiment: Dopamine (DA) uptake assay in primary midbrain cultures
Format: cell-based, rat
Settings: midbrain culture; for activity at 10 µM: compound concentration 10 μM; for activity at 2.5 µM: compound concentration 2.5 μM; for activity at 0.7 µM: compound concentration 0.7 μM; for activity at 5 µM: compound concentration 5 μM; for activity at 20 µM: compound concentration 20 μM; for activity at 0.6 µM: compound concentration 0.6 μM
Experimental: Primary midbrain cultures were prepared from rat embryo ventral mesencephalon as described previously by Lin et al (1994). In brief, rostral mesencephalic tegmentum of embryonic day 16 rat embryos was collected in DMEM/F12 (Hyclone SH30023.01) containing 2 mM glutamine on ice, The tissue was treated with 0.1% trypsin in Hanks' balanced salt solution (HBSS, Gibco 14175-095) for 15 min at 37° C. and dissociated mechanically by mild trituration with a fire-polished glass pipet in growth medium plus 2% heat-inactivated fetal bovine serum (FBS). The growth medium consisted of equal volumes of Dulbecco's minimal essential medium DMEM (Gibco 12100-046) and HAM's F12 nutrient mixture (Gibco 21700-075) supplemented with 33 mM glucose, 13 mM sodium bicarbonate, 5 mM HEPES, 2 mM glutamine, 25 μg/ml insulin, 100 μg/ml transferrin, 60 μM putrescine, 20 nM progesterone, 30 nM sodium selenite, 5 U/ml penicillin G and 5 μg/ml streptomycin. 24-well tissue culture plate was coated by adding 15 μg/ml poly-1-ornithine hydrobromide solution at 0.5 ml/well, incubated at room temperature for 1 hr. The coating solution was removed and the well washed 3 times with distilled water and one wash with HBSS. The dissociated cells were plated onto polyornithine-coated wells at 250,000-350,000 trypan blue-excluding viable cells per well in 500 μl of above medium containing 1% FBS. After 3 h when most of the cells had adhered to the bottom of the well, the medium was replaced with 500 μl of fresh medium without FBS. A serial dilution of the sample to be assayed for trophic activity was added to each well in duplicate at the time of medium change or within 24 h thereafter. Unless otherwise stated, cultures were incubated at 37° C. without any further medium change up to 7 days. Primary hindbrain cultures were prepared as described for the midbrain cultures except that the rostral raphe region (instead of the rostral mesencephalon) was dissected and trypsinized for 20 (instead of 15) min.
[^3H]DA uptake was measured in cultures at day 7, and all the solutions were maintained at 37° C. The growth medium was removed, and the cultures were rinsed twice with 0.25 ml of uptake buffer, which consists of HBSS (Gibco 11201-092) supplemented with 28 mM glucose, 15 mM HEPES, 1 mM ascorbic acid (an antioxidant), and […] pargyline (a monoamine oxidase inhibitor). The cultures were then incubated with 0.25 ml of fresh uptake buffer containing 50 nM [^3H]DA (NEN/DuPont) for 20 min at 37° C. [^3H]DA uptake was stopped by removing the incubation mixture, and cells were then washed twice with 0.5 ml of the uptake buffer at room temperature. To release [^3H]DA from the cells, the cultures were lysed with 0.2 ml of 0.1 N NaOH for 1 h at room temperature, the lysate was then added to 1 ml of Microscint-20 (Packard 6013621), and counted for radioactivity in a microplate scintillation counter (Packard TopCount, NXT). Background values were obtained by adding to the uptake buffer 0.5 mM GBR-12909, a specific inhibitor of the high-affinity uptake pump of the dopaminergic neurons, and were usually <5% of the ^3H uptake in untreated control cultures. Forskolin (Fk, 25 μM) was employed as a positive control.

[1] = Rattus norvegicus, Neuron, read-out: DA uptake % of control
[2] = Rattus norvegicus, Neuron, compound concentration 1.25 μM, read-out: DA uptake % of control

For `COc1ccc(/C=C/C(=O)Nc2ccc(S(=O)(=O)Nc3nnc[nH]3)cc2)cc1` [S′′′], the activity at 10 µM [1] was 190%.
Molecule `O=C(/C=C/c1cccc(F)c1)Nc1ccc(S(=O)(=O)Nc2nc[nH]n2)cc1` [S″] has an activity at 2.5 µM [1] of 280%.
`CCCOc1ccc(/C=C/C(=O)Nc2ccc(S(=O)(=O)Nc3nccs3)cc2)cc1OC` [P′] showed an activity at 1.25 µM [2] of 210%.
`Cc1cc(C)cc(/C=C/C(=O)Nc2ccc(S(=O)(=O)Nc3nccs3)cc2)c1` [D′′′] showed an activity at 1.25 µM [2] of 240%.
Work on `O=C(/C=C/c1ccccc1Br)Nc1ccc(S(=O)(=O)Nc2ccccn2)cc1` [U″] yielded an activity at 2.5 µM [1] of 210%.
In the case of `COc1ccc(/C=C/C(=O)Nc2ccc(S(=O)(=O)Nc3nccs3)cc2)c(OC)c1` [Z′′′′], the activity at 1.25 µM [2] is reported as 170%.
Work on `O=C(/C=C/c1cccc(Cl)c1)Nc1ccc(S(=O)(=O)Nc2nccs2)cc1` [M] yielded an activity at 0.7 µM [1] of 120%.
`COc1ccccc1/C=C/C(=O)Nc1ccc(S(=O)(=O)Nc2ccccn2)cc1` [P″] gave an activity at 5 µM [1] of 200%.
`COc1ccc(C(=O)Nc2ccc([S+]([O-])Nc3nccs3)cc2)cc1` (stereo not drawn) [H′] gave an activity at 10 µM [1] of 160%.
`CCc1nnc(NS(=O)(=O)c2ccc(NC(=O)/C=C/c3ccc(F)cc3)cc2)s1` [W] was tested, and the activity at 5 µM [1] was 180%.
`O=C(/C=C/c1ccccc1O)Nc1ccc(S(=O)(=O)Nc2ccccn2)cc1` [O′′′] showed an activity at 10 µM [1] of 150%.
For `O=C(Nc1ccc(S(=O)(=O)Nc2nccs2)cc1)c1ccc(F)c(F)c1` [F], the activity at 20 µM [1] was 180%.
`Cc1ccc(/C=C/C(=O)Nc2ccc(S(=O)(=O)Nc3nc(C)cc(C)n3)cc2)cc1` [O′] was tested, and the activity at 2.5 µM [1] was 150%.
With `COc1ccc(/C=C/C(=O)Nc2ccc(S(=O)(=O)Nc3ccccn3)cc2)cc1` [H′′′] the activity at 20 µM [1] was 180%.
In the case of `CN(C)c1ccc(C(=O)Nc2ccc(S(=O)(=O)Nc3nccs3)cc2)cc1` [E′′′], the activity at 2.5 µM [1] is reported as 130%.
`O=C(/C=C/c1ccc([N+](=O)[O-])cc1)Nc1ccc(S(=O)(=O)Nc2nccs2)cc1` [T′′′′] showed an activity at 5 µM [1] of 180%.
`O=C(/C=C/c1ccc(C(F)(F)F)cc1)Nc1ccc(S(=O)(=O)Nc2nccs2)cc1` [A′′′] gave an activity at 0.6 µM [1] of 195%.
In the case of `O=C(/C=C/c1ccccc1)Nc1ccc(S(=O)(=O)Nc2nccs2)cc1` [B], the activity at 2.5 µM [1] is reported as 170%.
In the case of `O=C(/C=C/c1cccc(Cl)c1Cl)Nc1ccc(S(=O)(=O)Nc2nccs2)cc1` [Y′′′′], the activity at 0.6 µM [1] is reported as 180%.
Molecule `O=C(Nc1ccc(S(=O)(=O)Nc2nccs2)cc1)c1cc2ccccc2o1` [E′′′′] has an activity at 2.5 µM [1] of 260%.
For `O=C(/C=C/c1c(Cl)cccc1Cl)Nc1ccc(S(=O)(=O)Nc2nccs2)cc1` [C′′′′′], the “DA uptake % of control” value (compound concentration 1.25 μM, 1.25 µM) was 310% of control.
`COc1cccc(/C=C/C(=O)Nc2ccc(S(=O)(=O)Nc3ccccn3)cc2)c1` [N′′′] was tested, and the activity at 10 µM [1] was 180%.
Molecule `O=C(/C=C/c1cccc(Cl)c1)Nc1ccc(S(=O)(=O)Nc2cnc3ccccc3n2)cc1` [K] has an activity at 0.7 µM [1] of 190%.
Molecule `O=C(Nc1ccc(S(=O)(=O)Nc2nccs2)cc1)c1sc2cc(Cl)ccc2c1Cl` [F′] has an activity at 0.3 µM (Rattus norvegicus, Neuron, compound concentration 0.3 μM, read-out: DA uptake % of control) of 180%.
Work on `Cn1c(C(=O)Nc2ccc(S(=O)(=O)Nc3nccs3)cc2)cc2ccccc21` [D′′′′] yielded an activity at 2.5 µM [1] of 190%.
Work on `COc1ccc(/C=C2\SC(=O)N(CCC(=O)Nc3ccc(S(=O)(=O)Nc4nccs4)cc3)C2=O)cc1` [R′] yielded an activity at 2.5 µM [1] of 155%.
With `O=C(/C=C/c1ccccc1C(F)(F)F)Nc1ccc(S(=O)(=O)Nc2nc[nH]n2)cc1` [G″] the activity at 1.25 µM [2] was 350%.
In the case of `O=C(/C=C/c1ccccc1C(F)(F)F)Nc1ccc(S(=O)(=O)Nc2nccs2)cc1` [M″], the activity at 1.25 µM [2] is reported as 280%.
`Cc1cc(NS(=O)(=O)c2ccc(NC(=O)/C=C/c3ccccc3Cl)cc2)no1` [B″] showed an activity at 5 µM [1] of 180%.
Work on `Cc1cc(NS(=O)(=O)c2ccc(NC(=O)/C=C/c3ccccc3)cc2)no1` [G′] yielded an activity at 20 µM [1] of 140%.
